Measurements taken from publication PMC12356528, “Modular Synthetic Platform for the Elaboration of Fragments in Three Dimensions for Fragment-Based Drug Discovery” (Journal of the American Chemical Society, 2025).
≈ marks a conversion by molar mass, not a printed value. Like-named read-outs stand apart in the source and are kept apart here.

What was measured:
[1] = DMPK Wave1: metabolic stability in rat hepatocytes; type: in vitro ADME; conditions: rat hepatocytes (RH)
[2] = DMPK Wave1: metabolic stability in human liver microsomes; type: in vitro ADME; conditions: human liver microsomes (HLM)
[3] = DMPK Wave1: aqueous solubility; type: physicochemical
[4] = DMPK Wave1: lipophilicity (measured logD); type: physicochemical

Row | Compound | metabolic stability (in words) [1] | metabolic stability (in words) [2] | solubility [3] | logD [4] | solubility ([3]; aqueous)
1 | COc1cc([C@H]2[C@@H]3CN(C(=O)Cc4c[nH]c5ccccc45)CC[C@@H]32)ccn1 [Compound 81] | lower metabolic stability | lower metabolic stability | 100 µM (≈ 36.1 µg/mL) | 3.1 | –
2 | CS(=O)(=O)N1CCC[C@@H]2[C@@H](c3cncnc3)[C@@H]21 [Compound 94] | – | – | – | 0.1 | 823 µM (≈ 208 µg/mL)
3 | CS(=O)(=O)N1CC2(CC2c2cncnc2)C1 (stereo not drawn) [Compound 88] | – | – | 913 µM (≈ 218 µg/mL) | -0.6 | –
4 | CS(=O)(=O)N1C2CCC1CC1(C2)CC1c1cncnc1 (stereo not drawn) [Compound 91] | – | – | > 981 µM | 0.5 | –
5 | C=CC(=O)N1C[C@H](Nc2ncnc3[nH]ccc23)CC[C@@H]1C [Ritlecitinib, 1-((2S,5R)-5-((7H-Pyrrolo[2,3-d]pyrimidin-4-yl)amino)-2-methylpiperidin-1-yl)prop-2-en-1-one, reference compound] | – | – | – | 1.6 | 996 µM (≈ 284 µg/mL)
6 | CS(=O)(=O)N1CCC2CC21c1cncnc1 (stereo not drawn) [Compound 86] | – | – | 881 µM (≈ 211 µg/mL) | -0.4 | –
7 | Cc1noc(C)c1S(=O)(=O)N1CCC2(CC1)CC2c1cnc2[nH]ccc2c1 (stereo not drawn) [Compound 78] | lower metabolic stability | lower metabolic stability | 49 µM (≈ 18.9 µg/mL) | 3.6 | –
8 | c1ncc(C2CC23CCN(c2ccc4c(c2)OCO4)CC3)cn1 (stereo not drawn) [Compound 82] | good metabolic stability | good metabolic stability | 887 µM (≈ 274 µg/mL) | 0.1 | –
9 | CS(=O)(=O)N1CCC2(CC1)CC2c1cncnc1 (stereo not drawn) [Compound 87] | – | – | 931 µM (≈ 249 µg/mL) | 0.2 | –
